Measurements as given in patent US8748435B2, “Pyrazolo pyrimidine derivatives” (Novartis AG, priority 2011, dated 2014).
Where a name gives a salt, the structure may show the parent alone.

Experiments:
[1] = target: T1, human GPR4 (Homo sapiens (Human), UniProt P46093); experiment: Human GPR4 binding assay ([3H]4 radioligand, membranes of 300.19 cells expressing human GPR4); conditions: radioligand [3H]4 (example 39), membranes of 300.19 cells expressing human GPR4
Experimental: a) Human GPR4 Binding Assay
(§1) Cells were grown in T175 flasks to a density of about 1×10^6 cells/mL in growth medium. The cells were harvested by centrifugation (3000 rpm for 30 minutes at 4° C.) and the pellet resuspended in ice cold buffer A (20 mM HEPES pH 7.8, 10 mM EDTA, 100 mM NaCl, 1 tab/40 mL protease inhibitor complete). […] The homogenate was centrifuged at 18000 rpm for 50 min at 4° C. and the membrane protein pellet resuspended in cold buffer A using the Polytron (2×20 seconds). The protein concentration is determined using the Bio Rad Protein Assay and human IgG as standard. The volume of the membrane protein suspension is adjusted to a final concentration of about 2 mg protein/mL. The suspension is then once again homogenized (Polytron) on ice at 25000 rpm for 20 seconds before being aliquoted and stored at −80° C.
(§2) Radio Ligand Binding Assay: Serial dilutions of compounds (stock in 10 mM DMSO) are prepared by first diluting the compounds in DMSO followed by a 1:50 dilution into assay buffer (10 mM HEPES, pH 8.0, 100 mM NaCl, 5 mM MgCl2, 1 mM CaCl2, 0.5% fatty acid-free BSA, 0.05% Tween-20). […] The desired amount of membranes (20 μg/well) is diluted with assay buffer. […] 100 μL of the membrane-suspension is added and the plate stirred for 60 minutes. […] The filter plate is washed 5 times with ice-cold wash buffer, dried and sealed at the bottom. Then 20 μL of Microscint 40 is added into each well and the top of the plate is sealed. Finally the plate is counted for 2 min/well in a TopCount NXT instrument (Packard Instruments). The data are analyzed using the GraphPad Prism™ software.

[2] = target: T1, human GPR4; experiment: Human GPR4 binding assay with additional human serum albumin (4% HSA); conditions: binding assay with 4% HSA
Experimental: as §1, §2
In a similar manner, a binding assay with additional human serum albumin (4% HSA) has been established.

[3] = target: T1, human GPR4; experiment: Cell-based assay for human GPR4 activity (pH-induced cAMP formation, HTRF, HeLa cells); conditions: HeLa cells stably expressing human GPR4, pH-induced cAMP
Experimental: b) Cell-Based Assay for Human GPR4 Activity
(§3) HeLa cells stably expressing human GPR4 were established by transfecting the cells with a construct containing the human GPR4 coding sequence. The cells were grown in Dulbecco's Modified Eagle Medium (DMEM)/HAM's tissue culture medium F12 (HAM's F12) supplemented with 10% fetal calf serum (FCS), 100 u/ml penicillin, 100 μg/ml streptomycin and 400 μg/ml G418 and 10 mM Hepes pH 8.0. pH-induced formation of cAMP was determined using the homogeneous time resolved fluorescence (HTRF) technology as provided by CisBio Inc. The cells were seeded in 384-well plates and cultured for 24 hours at 37° C., 5% CO2 before performing the assay. Medium was removed and 10 μl buffer A (Hepes buffered saline (HBS), 10 mM Hepes, pH 8, 2 mM 3-Isobutyl-1-methylxanthin (IBMX)) was added. For compound testing, buffer A with 2× concentrated compounds was used. Cells were incubated for 15 min at room temperature. 10 μl buffer B (HBS, 30 mM Hepes, specific pH) was added to reach the appropriate final pH for stimulation (see below) and incubation was continued for 15 min at room temperature. […] HBS: 130 mM NaCl, 0.9 mM NaH2 PO4, 5.4 mM KCl, 0.8 mM MgSO4, CaCl2 1.8 mM, 25 mM glucose, 10-30 mM Hepes. Adjustment of HBS buffers:
(§4) Compounds were diluted from fresh stock solutions at 10 mM in DMSO to 2 mM and then used for serial dilutions in DMSO.

[4] = target: mouse GPR4 (Mus musculus (Mouse), UniProt Q8BUD0); experiment: Mouse GPR4 cAMP assay; type: cell-based
Sequence of mouse GPR4 (Q8BUD0 whole entry): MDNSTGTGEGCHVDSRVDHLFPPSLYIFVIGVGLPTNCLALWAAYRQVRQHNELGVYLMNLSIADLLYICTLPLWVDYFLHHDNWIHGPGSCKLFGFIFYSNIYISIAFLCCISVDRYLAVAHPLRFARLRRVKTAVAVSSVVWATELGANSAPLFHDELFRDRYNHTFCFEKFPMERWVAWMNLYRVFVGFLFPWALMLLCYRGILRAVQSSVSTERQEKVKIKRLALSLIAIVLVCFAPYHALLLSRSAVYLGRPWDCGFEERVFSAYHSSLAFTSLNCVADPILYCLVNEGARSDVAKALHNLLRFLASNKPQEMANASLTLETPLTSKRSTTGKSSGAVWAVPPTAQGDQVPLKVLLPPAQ
Experimental: as §3, §4
(§5) In a similar manner, assays for the mouse (m) and rat (r) GPR4 receptors have been established.

[5] = target: rat GPR4 (Rattus norvegicus (Rat), UniProt Q4KLH9); experiment: Rat GPR4 cAMP assay; type: cell-based; conditions: read-out: r cAMP IC50
Sequence of rat GPR4 (Q4KLH9 whole entry): as the sequence (Q8BUD0 whole entry) above, with G8W, H51R, S339T counted along it
Experimental: as §3, §4, §5

[6] = target: Human H3 (Homo sapiens (Human), UniProt Q9Y5N1); experiment: Human H3 binding assay (SPA, [3H]-R-alpha-Methylhistamine); conditions: 3 nM [3H]-R-alpha-Methylhistamine
Sequence of Human H3 (Q9Y5N1 whole entry): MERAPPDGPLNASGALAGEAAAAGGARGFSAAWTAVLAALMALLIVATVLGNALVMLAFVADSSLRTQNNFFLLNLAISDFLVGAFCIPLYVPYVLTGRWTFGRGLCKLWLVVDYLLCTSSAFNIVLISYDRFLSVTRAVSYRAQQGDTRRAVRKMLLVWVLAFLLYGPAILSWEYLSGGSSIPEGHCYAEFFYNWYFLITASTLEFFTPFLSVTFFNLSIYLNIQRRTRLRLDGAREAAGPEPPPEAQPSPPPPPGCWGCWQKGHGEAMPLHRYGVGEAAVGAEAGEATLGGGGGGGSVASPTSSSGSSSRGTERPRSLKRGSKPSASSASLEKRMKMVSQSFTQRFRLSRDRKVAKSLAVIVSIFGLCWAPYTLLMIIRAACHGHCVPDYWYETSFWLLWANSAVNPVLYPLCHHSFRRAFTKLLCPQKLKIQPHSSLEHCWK
Experimental: c) Human H3 Binding Assay
The Scintillation Proximity Binding Assay (SPA) assay was performed in a final volume of 50 μL per well in a 384-well polystyrene plate.
The final concentration of the radioligand was 3 nM. • 20 μL of a beads (PVT-WGA type A) and membranes mixed suspension in assay buffer, in order to get a final concentration of 10 μg/well of membranes and 200 μg/well of beads. As an example, 1471 μL membranes (Conc.: 5.1 mg/mL) and 1500 μL of bead suspension (Conc.: 100 mg/mL) are diluted to a final volume of 15 mL of assay buffer.
The plates were sealed and shaken at room temperature, then allowed to stand at room temperature for at least 1 hour. The plates were counted using a Perkin Elmer TopCount reader, each well being counted for 1 minute.

[7] = system: antigen-induced arthritis (knee swelling); experiment: Rat antigen-induced arthritis model; type: in vivo; conditions: oral gavage, AUC of R/L knee swelling ratio vs control
Experimental: e) GPR4 Activity in Rat Antigen-induced Arthritis Model Female Lewis rats were sensitised intradermally on the back at two sites to methylated bovine serum albumin (mBSA) homogenised 1:1 with complete Freund's adjuvant on days −21 and −14 (0.1 ml containing 1 mg/ml mBSA). On day 0, the right knee received […] of 10 mg/ml mBSA in 5% glucose solution (antigen injected knee), while the left knee received […] of 5% glucose solution alone (vehicle injected knee). The diameters of the left and right knees were then measured using calipers immediately after the intra-articular injections and again on days 2, 4 and 7. The compounds of the invention were administered twice daily by oral gavage; vehicle (saline) at 5 ml/kg, and dexamethasone at 0.3 mg/kg was given as a control. Right knee swelling was calculated as a ratio of left knee swelling, and the R/L knee swelling ratio plotted against time to give Area Under the Curve (AUC) graphs for control and treatment groups. The percentage inhibition of the individual treatment group AUCs were calculated vs the control group AUC (0% inhibition).

[8] = system: VEGF-induced angiogenesis; experiment: GPR4 activity in VEGF-induced angiogenesis in mice (growth factor implant model); type: in vivo; conditions: po 30 mg/kg bid, day 4 after chamber implantation
Experimental: d) GPR4 Activity in VEGF-Induced Angiogenesis in Mice
The functional activity of GPR4 was determined in the angiogenesis growth factor implant model. Porous tissue chambers made of perfluoro-alkoxy-Teflon were filled with 0.8% agar and 20 U/ml heparin supplemented with or without 8 μg/ml recombinant human VEGF. The solutions were maintained at 39° C. prior to the filling procedure. Mice were anesthetized using 3% isoflurane inhalation. For subcutaneous implantation, a small skin incision was made at the base of the tail to allow the insertion of an implant trocar. The chamber was implanted under aseptic conditions through the small incision onto the back of the animal. The skin incision was closed by wound clips. The compounds were applied po at 30 mg/kg bid starting at the day of the chamber implantation.
On the 4th day after implantation, animals were sacrificed using CO2. Chambers were excised and the vascularized fibrous tissue formed around each implant carefully removed and weighed and expressed as Δ tissue weight % [((compound/VEGF)−(no compound/no VEGF))/((no compound/VEGF)−no compound/no VEGF))×100]. Body weight was used to monitor the general condition of the mice.

[9] = system: CFA-induced hyperalgesia; experiment: Established rat hyperalgesia model (CFA); type: in vivo; conditions: gavage
Experimental: f) Established Rat Hyperalgesia Model
Naïve withdrawal thresholds of both hind paws were determined by using an increasing pressure stimulus placed onto the dorsal surface of each paw using an analgesymeter. Delayed inflammatory pain was then induced by intra-plantar injection of 25 μl of complete Freund's adjuvant (CFA) into one hindpaw with the contralateral paw acting as the control. […] One hour later, paw withdrawal thresholds were re-measured on both the ipsilateral (CFA-injected) and contralateral (uninjected) paw; measurements were repeated at 3 hrs and 6 hrs post dosing. The reversal of hyperalgesia was calculated using the following formula: Reversal (%)=100×(postdose ipsilateral threshold−predose ipsilateral threshold) (naïve ipsilateral threshold−predose ipsilateral threshold).

T1 sequence (P46093 whole entry): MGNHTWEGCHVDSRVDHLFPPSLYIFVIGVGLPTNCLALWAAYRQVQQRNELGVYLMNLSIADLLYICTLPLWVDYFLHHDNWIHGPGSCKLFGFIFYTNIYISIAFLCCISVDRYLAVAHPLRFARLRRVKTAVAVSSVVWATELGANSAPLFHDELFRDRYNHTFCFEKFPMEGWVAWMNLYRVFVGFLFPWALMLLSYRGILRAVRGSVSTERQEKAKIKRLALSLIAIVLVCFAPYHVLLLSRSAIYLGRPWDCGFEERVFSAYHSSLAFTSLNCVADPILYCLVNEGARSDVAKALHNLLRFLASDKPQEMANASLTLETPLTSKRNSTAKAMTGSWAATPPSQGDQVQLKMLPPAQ

| SMILES | IC50 [1] [µM] | IC50 [2] [µM] | IC50 [3] [µM] | IC50 [4] [µM] | IC50 [5] [µM] | IC50 [6] [µM] | Inhibition of swelling ([7]; 90 mg/kg bid) [%] | Δ tissue weight [8] [%] | Inhibition of swelling ([7]; 30 mg/kg bid) [%] | % reversal of hyperalgesia ([9]; 3 mg/kg, 1 h) [%] | % reversal of hyperalgesia ([9]; 3 mg/kg, 3 h) [%] | % reversal of hyperalgesia ([9]; 3 mg/kg, 6 h) [%] | % reversal of hyperalgesia ([9]; 10 mg/kg, 1 h) [%] | % reversal of hyperalgesia ([9]; 10 mg/kg, 3 h) [%] | % reversal of hyperalgesia ([9]; 10 mg/kg, 6 h) [%] | % reversal of hyperalgesia ([9]; 30 mg/kg, 1 h) [%] | % reversal of hyperalgesia ([9]; 30 mg/kg, 3 h) [%] | % reversal of hyperalgesia ([9]; 30 mg/kg, 6 h) [%] | Inhibition of swelling ([7]; 60 mg/kg bid) [%] |
| --- | --- | --- | --- | --- | --- | --- | --- | --- | --- | --- | --- | --- | --- | --- | --- | --- | --- | --- | --- |
| CCc1nn2c(C)cc(C)nc2c1Cc1ccc(/C=C/CN2CCN[C@H](CO)C2)cc1 [Example 8, ((S)-4-{(E)-3-[4-(2-Ethyl-5,7-dimethyl-pyrazolo[1,5-a]pyrimidin-3-ylmethyl)-phenyl]-allyl}-piperazin-2-yl)-methanol dihydrochloride] | 0.028 | 0.051 | 0.034 | 0.378 | 0.67 | > 30 | 30 |  |  |  |  |  |  |  |  |  |  |  |  |
| CCc1nn2c(C)cc(C)nc2c1Cc1ccc(/C=C/CN2CCN[C@@H](C)C2)cc1 [Example 9, 2-Ethyl-5,7-dimethyl-3-{4-[(E)-3-((S)-3-methyl-piperazin-1-yl)-propenyl]-benzyl}-pyrazolo[1,5-a]pyrimidine] | 0.019 | 0.006 | 0.059 | 0.89 | 1.44 | 18 |  | 44 |  |  |  |  |  |  |  |  |  |  |  |
| CCc1nn2c(C)cc(C)nc2c1Cc1ccc(/C=C/CN2CCN(C[C@@H](O)CO)CC2)cc1.Cl.Cl [Example 17, (R)-3-(4-{(E)-3-[4-(2-Ethyl-5,7-dimethyl-pyrazolo[1,5-a]pyrimidin-3-ylmethyl)-phenyl]-allyl}-piperazin-1-yl)-propane-1,2-diol dihydrochloride] |  |  |  |  |  |  |  |  | 36 | 28 | 18 | 3 | 36 | 29 | 7 | 55 | 32 | 15 |  |
| CCc1nn2c(C)cc(C)nc2c1Cc1ccc(-c2nnc(C3CCNCC3)o2)cc1 [Example 35, 2-Ethyl-5,7-dimethyl-3-[4-(5-piperidin-4-yl-[,3,4]oxadiazol-2-yl)-benzyl]-pyrazolo[1,5-a]pyrimidine] |  |  |  |  |  |  | 40 | 49 | 26 | 36 | 25 | 5 | 43 | 36 | 15 | 62 | 47 | 25 | 34 |

Further lines, with some results ahead:

| IC50 [1] [µM] | IC50 [2] [µM] | IC50 [3] [µM] | IC50 [4] [µM] | IC50 [5] [µM] | IC50 [6] [µM] | SMILES | Inhibition of swelling ([7]; 90 mg/kg bid) [%] | Δ tissue weight [8] [%] | Inhibition of swelling ([7]; 30 mg/kg bid) [%] | % reversal of hyperalgesia ([9]; 3 mg/kg, 1 h) [%] | % reversal of hyperalgesia ([9]; 3 mg/kg, 3 h) [%] | % reversal of hyperalgesia ([9]; 3 mg/kg, 6 h) [%] | % reversal of hyperalgesia ([9]; 10 mg/kg, 1 h) [%] | % reversal of hyperalgesia ([9]; 10 mg/kg, 3 h) [%] | % reversal of hyperalgesia ([9]; 10 mg/kg, 6 h) [%] | % reversal of hyperalgesia ([9]; 30 mg/kg, 1 h) [%] | % reversal of hyperalgesia ([9]; 30 mg/kg, 3 h) [%] | % reversal of hyperalgesia ([9]; 30 mg/kg, 6 h) [%] | Inhibition of swelling ([7]; 60 mg/kg bid) [%] |
| --- | --- | --- | --- | --- | --- | --- | --- | --- | --- | --- | --- | --- | --- | --- | --- | --- | --- | --- | --- |
|  | 0.019 | 0.021 | 0.262 | 1.41 | > 30 | CCc1nn2c(C)cc(C)nc2c1Cc1ccc(OC[C@H]2CC[C@@H](N)CC2)cc1 [Example 23, 4-[4-(2-Ethyl-5,7-dimethyl-pyrazolo[1,5-a]pyrimidin-3-ylmethyl)-phenoxymethyl]-cyclohexylamine] |  |  | 24 |  |  |  |  |  |  |  |  |  |  |
| 0.118 | 0.18 | 0.049 | 0.687 | 2.3 | 20 | CCc1nn2c(C)cc(C)nc2c1Cc1ccc(-n2cc(CN3CC(O)C3)cn2)cc1 [Example 28, 1-{1-[4-(2-Ethyl-5,7-dimethyl-pyrazolo[1,5-a]pyrimidin-3-ylmethyl)-phenyl]-1H-pyrazol-4-ylmethyl}-azetidin-3-ol] | 25 |  |  |  |  |  |  |  |  |  |  |  |  |
| 0.043 | 0.061 | 0.053 | 0.511 | 1.33 | > 30 | CCc1nn2c(C)cc(C)nc2c1Cc1ccc(-n2cc(CN3CCNCC3)cn2)cc1 [Example 31, 2-Ethyl-5,7-dimethyl-3-[4-(4-piperazin-1-ylmethyl-pyrazol-1-yl)-benzyl]-pyrazolo[1,5-a]pyrimidine] |  |  | 24 |  |  |  |  |  |  |  |  |  | 38 |
| 0.015 | 0.029 | 0.045 | 0.18 | 0.811 | > 30 | CCc1nn2c(C)cc(C)nc2c1Cc1ccc(-c2nnc(C3CCN(C(=O)[C@H](CO)NC)CC3)o2)cc1 [Example 38, (S)-1-(4-{5-[4-(2-Ethyl-5,7-dimethyl-pyrazolo[1,5-a]pyrimidin-3-ylmethyl)-phenyl]-[1,3,4]oxadiazol-2-yl}-piperidin-1-yl)-3-hydroxy-2-methylamino-propan-1-one hydrochloride] |  |  |  |  |  |  |  |  |  |  |  |  |  |
